Measurements reported in patent publication US20070265451A1, “Process for the preparation of oxazolidinones and method of use thereof” (Board of Trustees of Michigan State University, priority 2001, published 2007).
In brackets after ≈: the same amount, converted by molar mass. Read-outs that look alike come from different tables or passages of the source.

How the values were obtained:
Assay type in all cases: cell-based
[1] = test system: Megakaryocytic bone marrow cells; assay: Bone marrow cell growth inhibition, megakaryocytic
From the text: (§1) In general, many of the substituted oxazolidinones were as effective as ZYVOX.

[2] = test system: Myeloid bone marrow cells; assay: Bone marrow cell growth inhibition, myeloid
From the text: as §1

[3] = test system: Enterococcus faecalis (ATCC 51299); assay: Broth microdilution MIC, Enterococcus faecalis ATCC 51299
From the text: (§2) See, NCCLS document M7-A5. Methods for Dilution Antimicrobial Susceptibility Tests for Bacteria That Grow Aerobically; Approved Standard-Fifth Edition. Volume 20, Number 2. January 2000, (ISBN 1-56238-394-9) and Lorian V. Antibiotics. Laboratory Medicine. 4th ed. Baltimore: Williams and Wilkins, pp. 52-111 (1996). For subsequent testing, the following strains have been used: Staphylococcus aureus NRS4 (992; HIP5836; New Jersey) (Smith et al., New Engl. J. Med. 340: 493-501 (1999); Tenover et al., J. Clin. Microbiol. 36: 1020-1027 (1998)), Staphylococcus aureus NRS3 (963sm; HIP5827; Michigan) (Smith et al., ibid.; Tenover et al., ibid.), Staphylococcus aureus NRS103 (Becker) (Karakawa and Vann, Sem. Infect. Dis. 4: 285 (1982), Staphylococcus aureus NRS102 (Reynolds) Karakawa and Vann, ibid; McMurray et al., JID 162: 759-762 (1990)), Staphylococcus epidermidis NRS101 (ATCC 35984), Streptococcus pneumoniae (ATCC 49619), Enterococcus faecalis (ATCC 51299), and Staphylococcus aureus (ATCC 43300.
(§3) Stock cultures of these strains were obtained by seeding colonies from overnight streak plates (Tryptic Soy Agar II (TSAII) and 5% sheep's blood (SB) agar plates: Becton Dickinson, CA#2211261) into sterile Mueller-Hinton Broth (MHB)(Becton Dickinson, CA#211443) and growing the suspensions to mid-late log phase in 13 mL screw-cap tubes. Glycerol (Sigma, CA#G-6279) was sterilized by autoclaving for 15 minutes at 121° C. in 6 mL volumes, and then stored at 2-8° C. This was diluted to 20% in dH2O, and then added 1:1 (250 μL:250 μL, 10% final glycerol concentration) to the logarithmically growing bacterial suspension of each strain. Tubes were frozen and stored at −70° C. Purity of the stock cultures was tested by thawing one tube of each strain in a water bath at 37° C. and plating them on TSAII with 5% SB. Plates were incubated overnight at 37° C. and colonies were examined for morphology. Growth curves and approximate CFU/mL were also obtained.
(§4) High purity substituted oxazolidinones prepared according to the method of the present invention and a ZYVOX standard (ZYVOX is a trade name for linezolid available from Pharmacia Corporation) were provided by Synthon Corporation, Monmouth Junction, N.J. Compounds were dissolved at 10 mg/mL in DMSO, as after a dilution of approx. 39.0 to reach the desired final starting concentration of 256 ug/ml, the concentration of DMSO is approximately 2.5%. Compounds were then stored at room temperature (25° C.) in the dark.
(§5) Antimicrobial susceptibility screening was as follows. All compounds were initially screened for activity in duplicate at 256 μg/mL (2.5% DMSO), including ZYVOX, the positive control for antimicrobial activity. A single well of bacterially inoculated 2.5% DMSO served as a positive control for bacterial growth, while a well of DMSO inoculated with of 50 μL of sterile 0.9% saline served as a negative growth control. Controls were prepared on every microplate, so that 46 was the maximum number of compounds that were screened per plate. Broth was pipetted into sterile microcentrifuge tubes, to which the compounds were then added (1:19.53 dilution or 2× final concentration). Each tube was vortexed, and 50 μL was immediately transferred to the microplate wells for each strain. Solubility was assessed by visual observation. MB (medium broth solubility) was recorded if the solution appeared only slightly cloudy. LB (low broth solubility) was recorded if the solution was extremely cloudy, and especially if larger, clumpy precipitates formed. Bacteria were grown as described above, although absorbance was measured at 650 nm and bacteria were diluted to an initial OD of 0.12-0.15. Bacteria were then further diluted 1:100 with 0.9% sterile saline. Within 15 minutes of this final dilution, 50 μL of this suspension was added to each well for a final volume of […], and a final bacterial concentration of 1×10^5 CFU/mL (except for the negative control well). Plates were grown as above and all observations were recorded. […]

[4] = test system: Staphylococcus aureus NRS3 (963sm; HIP5827; Michigan); assay: Broth microdilution MIC, MR SA Michigan; settings: strain Michigan; for MIC90: Staphylococcus aureus, NRS3, methicillin resistant SA, read-out: MIC90-100 MR SA Michigan
From the text: as §2, §3, §4, §5

[5] = test system: Staphylococcus aureus NRS4 (992; HIP5836; New Jersey); assay: Broth microdilution MIC, MR SA New Jersey; settings: strain New Jersey; for MIC90: Staphylococcus aureus, NRS4, methicillin resistant SA, read-out: MIC90-100 MR SA New Jersey
From the text: as §2, §3, §4, §5

[6] = test system: Erythroid bone marrow cells; assay: Bone marrow cell growth inhibition, erythroid
From the text: as §1

[7] = test system: Enterococcus faecalis 29212; assay: Broth microdilution MIC, Enterococcus faecalis ATCC 29212; settings: for MIC90: ATCC29213, Table 1, read-out: MIC90-100 EF ATCC 29213
[8] = test system: Staphylococcus aureus (ATCC 43300); assay: Broth microdilution MIC, MR SA ATCC 43300; settings: ATCC43300, methicillin resistant SA, read-out: MIC90-100 MR SA ATCC 43300
From the text: as §2, §3, §4, §5

[9] = test system: Staphylococcus aureus 29213; assay: Broth microdilution MIC, Staphylococcus aureus ATCC 29213; settings: for MIC90 / MIC: Staphylococcus aureus; for MIC90: ATCC29212, Table 1, read-out: MIC90-100 SA ATCC 29212; for MIC: ATCC29213, Table 2, read-out: MIC(90-100) SA-ATCC 29213
From the text: as §2, §3, §4, §5

[10] = test system: Staphylococcus aureus NRS103 (Becker); assay: Broth microdilution MIC, Ref SA Becker; settings: strain Becker, read-out: MIC90-100 Ref SA Becker
From the text: as §2, §3, §4, §5

[11] = test system: Staphylococcus aureus NRS102 (Reynolds); assay: Broth microdilution MIC, Pen. R SA Reynolds; settings: strain Reynolds, read-out: MIC90-100 Pen. R SA Reynolds
From the text: as §2, §3, §4, §5

[12] = ATCC51299, vancomycin sensitive EF, ATCC 51299, read-out: MIC90-100 VS EF ATCC 51299
[13] = Enterococcus faecalis, EF, strain printed ATCC 29213

Compound | IC50 [1] [µg/mL] | IC50 [2] [µg/mL] | MIC90 [3, 12] [µg/mL] | MIC90 [4] [µg/mL] | MIC90 [5] [µg/mL] | IC50 [6] [µg/mL] | MIC90 [7, 13] [µg/mL] | MIC90 [8] [µg/mL] | MIC90 ([9]; SA, strain ATCC 29212) [µg/mL] | MIC [9] [µg/mL] | MIC90-100 MR SA Michigan ([4]; methicillin resistant SA) [µg/mL] | MIC90-100 MR SA New Jersey ([5]; methicillin resistant SA) [µg/mL] | MIC90-100 EF ATCC 29213 ([7]; Table 1, EF, strain printed ATCC 29213) [µg/mL] | MIC90-100 SA ATCC 29212 ([9]; Table 1, SA, strain ATCC 29212) [µg/mL] | MIC90 [10] [µg/mL] | MIC90 [11] [µg/mL] | MIC90 ([3]; ATCC51299, read-out: MIC90-100 VS EF ATCC 51299) [µg/mL] | MIC ([7]; Enterococcus faecalis, ATCC29212, Table 2, read-out: MIC(90-100) EF-ATCC 29212) [µg/mL]
CC(C)N1C[C@@H](COS(=O)(=O)c2ccc([N+](=O)[O-])cc2)OC1=O [Compound 253] | 10 (≈ 29 µM) | 30 (≈ 87.1 µM) | > 256 | 256 (≈ 743 µM) | 256 (≈ 743 µM) | 7 (≈ 20.3 µM) | 250 (≈ 726 µM) | > 256 | 8 to 16 (≈ 23.2 to 46.5 µM) | 15.6 (≈ 45.3 µM) | – | – | – | – | – | – | – | –
CC(C)N1C[C@@H](CNSc2ccc([N+](=O)[O-])cc2)OC1=O [Compound 1705] | 0.08 (≈ 0.257 µM) | 5 (≈ 16.1 µM) | 8 (≈ 25.7 µM) | 2 (≈ 6.42 µM) | 3 (≈ 9.64 µM) | 0.5 (≈ 1.61 µM) | 4 (≈ 12.8 µM) | 4 (≈ 12.8 µM) | 2 (≈ 6.42 µM) | – | – | – | – | – | 4 (≈ 12.8 µM) | 32 (≈ 103 µM) | – | –
CCN1C[C@H](CNSc2ccc([N+](=O)[O-])cc2)OC1=O [Compound 1715] | 0.08 (≈ 0.269 µM) | 5 (≈ 16.8 µM) | 8 (≈ 26.9 µM) | 3 (≈ 10.1 µM) | 3 (≈ 10.1 µM) | 0.7 (≈ 2.35 µM) | 4 (≈ 13.5 µM) | 4 (≈ 13.5 µM) | 2 (≈ 6.73 µM) | – | – | – | – | – | 8 (≈ 26.9 µM) | 32 (≈ 108 µM) | – | –
O=C(OC[C@H]1CN(c2ccc([N+](=O)[O-])cc2)C(=O)O1)Oc1ccc([N+](=O)[O-])cc1 [Compound 1809] | – | – | – | 3 (≈ 7.44 µM) | 3 (≈ 7.44 µM) | – | 4 (≈ 9.92 µM) | 4 (≈ 9.92 µM) | 4 to 8 (≈ 9.92 to 19.8 µM) | 8 (≈ 19.8 µM) | – | – | – | – | 4 (≈ 9.92 µM) | 8 (≈ 19.8 µM) | 2 (≈ 4.96 µM) | 4 (≈ 9.92 µM)
CC(=O)NC[C@H]1CN(c2ccc(N3CCOCC3)c(F)c2)C(=O)O1 [ZYVOX, linezolid, reference compound] | 4 (≈ 11.9 µM) | 20 (≈ 59.3 µM) | 0.5 (≈ 1.48 µM) | 2 (≈ 5.93 µM) | 2 (≈ 5.93 µM) | 0.08 (≈ 0.237 µM) | 2 (≈ 5.93 µM) | 1 (≈ 2.96 µM) | 2 (≈ 5.93 µM) | – | – | – | – | – | 1 (≈ 2.96 µM) | 1 (≈ 2.96 µM) | – | –

More lines, main results first:

IC50 [1] [µg/mL] | IC50 [2] [µg/mL] | MIC90 [3, 12] [µg/mL] | MIC90 [4] [µg/mL] | MIC90 [5] [µg/mL] | IC50 [6] [µg/mL] | MIC90 [7, 13] [µg/mL] | MIC90 [8] [µg/mL] | MIC90 ([9]; SA, strain ATCC 29212) [µg/mL] | MIC [9] [µg/mL] | MIC90-100 MR SA Michigan ([4]; methicillin resistant SA) [µg/mL] | MIC90-100 MR SA New Jersey ([5]; methicillin resistant SA) [µg/mL] | MIC90-100 EF ATCC 29213 ([7]; Table 1, EF, strain printed ATCC 29213) [µg/mL] | MIC90-100 SA ATCC 29212 ([9]; Table 1, SA, strain ATCC 29212) [µg/mL] | MIC90 [10] [µg/mL] | MIC90 [11] [µg/mL] | Compound | MIC90 ([3]; ATCC51299, read-out: MIC90-100 VS EF ATCC 51299) [µg/mL] | MIC ([7]; Enterococcus faecalis, ATCC29212, Table 2, read-out: MIC(90-100) EF-ATCC 29212) [µg/mL]
0.9 (≈ 2.32 µM) | 20 (≈ 51.6 µM) | > 256 | 256 (≈ 661 µM) | 256 (≈ 661 µM) | 20 (≈ 51.6 µM) | 250 (≈ 645 µM) | 100 (≈ 258 µM) | 16 to 32 (≈ 41.3 to 82.6 µM) | 32 (≈ 82.6 µM) | – | – | – | – | – | – | CN(C)C(=O)CN1C[C@@H](COS(=O)(=O)c2ccc([N+](=O)[O-])cc2)OC1=O [Compound 1021] | – | –
0.6 (≈ 1.82 µM) | 5 (≈ 15.1 µM) | > 256 | – | – | 0.05 (≈ 0.151 µM) | – | 128 (≈ 388 µM) | – | 8 (≈ 24.2 µM) | 256 (≈ 775 µM) | 256 (≈ 775 µM) | 250 (≈ 757 µM) | 4 to 8 | – | – | CCN1C[C@@H](COS(=O)(=O)c2ccc([N+](=O)[O-])cc2)OC1=O [Compound 1192] | – | –
